According to patent US4122184A, “Benzimidazole insecticides” (priority 1977, dated 1978):

What was measured:
Assay type in all cases: in vivo
[1] = test system: Tarnished Plant Bug Adults; assay: Field trial, stomach poison test; parameters: key: mortality rating on a 0 to 9 scale
How it was run: (§1)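 Mortality scored 0–9 at 24, 48 and 72 h after insects fed on treated leaves. Leaves sprayed at 10 psi or dipped in test solutions, air-dried; 5 or 10 insects/dish, 1–2 replicates, typically 2–3 rates per compound. Values are average mortality per concentration.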

[2] = test system: Unidentified Green Leafhopper; assay: Field trial, stomach poison test; parameters: key: mortality rating on a 0 to 9 scale
How it was run: as §1

Milkweed Beetle = assay: Field trial (first summer), contact; conditions: 125 ppm
Picnic Beetle [3] = assay: Field trial (first summer), contact; conditions: 250 ppm
Picnic Beetle [4] = assay: Field trial (first summer), stomach; conditions: 250 ppm
Description: Leaves from the infested plant are treated with different concentrations of the test compounds, either by spraying with a DeVilbiss Special Atomizer (5004) at 10 psi or by dipping the leaves in solutions containing the compound. The leaves are then allowed to air dry.
After the leaves have dryed, they are placed in plastic petri dishes (100 × 25 mm), then the insects are counted out into each dish, five or ten insects per dish depending on the number of insects available. There are one or two replicates and usually two or three rates with each compound. Mortality results are taken at 24, 48 and 72 hours. The rating scale is 0 to 9.
During the previous summer similar field trials were conducted employing the same tests as heretofore but with some additional species of insects not included in the later tests. The results listed below are for tests in which an insect mortality was established by a given application route and at a given concentration in a particular test. The same 0 - 9 scoring system is used as is the designation of compounds by alphabetical symbols.

Bagworms [5] = assay: Field trial, contact poison test; parameters: key: 0-9 scale: 0 = 0-10% mortality, 9 = 91-100% mortality
Description: Infested plants are placed in 6 oz. prescription bottles filled with water to keep them from wilting. Cellucotton is wrapped around the plant stem and squeezed into the bottle neck to prevent the insects from drowning.
A DeVilbiss Special Atomizer (5004) is used at 10 psi to spray the test plant with different concentrations of compounds. The atomizer is held at arm's length to prevent blowing the insects off the host plant. After treating, the bottles are placed on a table covered with brown wrapping paper to catch the dead insects as they drop from the plant. The plants are spaced so the leaves or plants are not touching one another.
The results are read at 24, 48, and 72 hours when applicable. The rating scale is 0 to 9 where 0 = 0-10 percent and 9 = 91-100 percent mortality.
Using the above methods, field trials were carried out against species of 5 orders of insects. The results, which are summarized in the following tables, give the average mortality for the particular insect with a given benzimidazole for each concentration employed. […] These tables contain all results obtained during the summer trials.

Eastern Tent Caterpillar [6] = assay: Field trial, topical application
How it was run: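 1 μL benzimidazole solution of set microgram content applied topically to larvae or adults. Mortality read at 24, 48 and 72 h where applicable, rated 0-9 (0 = 0-10%, 9 = 91-100%); values are average mortality per concentration.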

Alfalfa Weevil Larvae = assay: Field trial, contact poison test
How it was run: (§2)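 Infested host plants were kept in water-filled bottles with cellucotton around the stem and sprayed with different compound concentrations by atomizer at 10 psi from arm's length. Mortality was read at 24, 48 and 72 h on a 0–9 scale (0 = 0-10%, 9 = 91-100% mortality), averaged per concentration.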

[7] = test system: Potato Flea Beetle Adults; assay: Field trial, contact poison test
How it was run: as §2

Asparagus Beetles Adults = assay: Field trial, contact poison test
How it was run: as §2

Eastern Tent Caterpillar [8] = assay: Field trial, stomach poison test
How it was run: as §1

Walnut Caterpillar = assay: Field trial, stomach poison test
How it was run: as §1

Armyworm, P. Unipuncta = assay: Field trial, stomach poison test
How it was run: as §1

Bagworms [9] = assay: Field trial, stomach poison test
How it was run: as §1

[10] = test system: Red-Legged Grasshopper Adults; assay: Field trial, stomach poison test
How it was run: as §1

Elm Leaf Beetle = assay: Field trial, stomach poison test
How it was run: as §1

Molecule `O=[N+]([O-])c1cc(C(F)(F)F)cc2nc(C(F)(F)F)[nH]c12` [A, 2,6-bis(trifluoromethyl)-4-nitrobenzimidazole] has an average mortality rating ([1]; 10 ppm) of 3, an average mortality rating ([1]; 25 ppm) of 1 and an average mortality rating ([1]; 50 ppm) of 2. It also gave an average mortality rating ([2]; 10 ppm) of 4, an average mortality rating ([2]; 25 ppm) of 2 and an average mortality rating ([2]; 50 ppm) of 6. The insect mortality rating (Milkweed Beetle) was 9 (91-100 percent mortality), the insect mortality rating (Picnic Beetle [3]) was 9 (91-100 percent mortality) and the insect mortality rating (Picnic Beetle [4]) was 9 (91-100 percent mortality). For the same molecule, the average mortality rating (Bagworms [5]; 125 ppm) was 0 (0-10 percent), the average mortality rating (Bagworms [5]; 250 ppm) was 4 and the average mortality rating (Bagworms [5]; 500 ppm) was 4. The average mortality rating (Bagworms [5]; 750 ppm) was 1, the average mortality rating (Bagworms [5]; 1000 ppm) was 0 (0-10 percent) and the average mortality rating (Bagworms [5]; 1500 ppm) was 0 (0-10 percent). It also gave an average mortality rating (Eastern Tent Caterpillar [6]; 0.3 μg/μl) of 3, an average mortality rating (Eastern Tent Caterpillar [6]; 0.6 μg/μl) of 1 and an average mortality rating (Eastern Tent Caterpillar [6]; 1.2 μg/μl) of 3. It also gave an average mortality rating (Alfalfa Weevil Larvae; 500 ppm) of 3, an average mortality rating (Alfalfa Weevil Larvae; 750 ppm) of 3 and an average mortality rating (Alfalfa Weevil Larvae; 1000 ppm) of 5. For the same molecule, the average mortality rating ([7]; 10 ppm) was 9 (91-100 percent mortality), the average mortality rating ([7]; 25 ppm) was 9 (91-100 percent mortality) and the average mortality rating ([7]; 50 ppm) was 8. The average mortality rating ([7]; 100 ppm) was 8, the average mortality rating ([7]; 250 ppm) was 9 (91-100 percent mortality) and the average mortality rating (Asparagus Beetles Adults; 10 ppm) was 7. For the same molecule, the average mortality rating (Asparagus Beetles Adults; 25 ppm) was 7, the average mortality rating (Asparagus Beetles Adults; 50 ppm) was 8 and the average mortality rating (Eastern Tent Caterpillar [8]; 250 ppm) was 0 (0-10 percent). The average mortality rating (Eastern Tent Caterpillar [8]; 500 ppm) was 0 (0-10 percent), the average mortality rating (Eastern Tent Caterpillar [8]; 1000 ppm) was 0 (0-10 percent) and the average mortality rating (Walnut Caterpillar; 50 ppm) was 1. For the same molecule, the average mortality rating (Walnut Caterpillar; 100 ppm) was 3, the average mortality rating (Walnut Caterpillar; 250 ppm) was 3 and the average mortality rating (Armyworm, P. Unipuncta; 125 ppm) was 9 (91-100 percent mortality). The average mortality rating (Armyworm, P. Unipuncta; 250 ppm) was 9 (91-100 percent mortality), the average mortality rating (Armyworm, P. Unipuncta; 500 ppm) was 9 (91-100 percent mortality) and the average mortality rating (Bagworms [9]; 500 ppm) was 1. The average mortality rating (Bagworms [9]; 750 ppm) was 0 (0-10 percent), the average mortality rating (Bagworms [9]; 1000 ppm) was 0 (0-10 percent) and the average mortality rating (Bagworms [9]; 1500 ppm) was 1. For the same molecule, the average mortality rating (Bagworms [9]; 2500 ppm) was 0 (0-10 percent), the average mortality rating (Bagworms [9]; 5000 ppm) was 1 and the average mortality rating ([10]; 10 ppm) was 0 (0-10 percent). It also gave an average mortality rating ([10]; 25 ppm) of 4, an average mortality rating ([10]; 50 ppm) of 6 and an average mortality rating (Elm Leaf Beetle; 125 ppm) of 3. For the same molecule, the average mortality rating (Elm Leaf Beetle; 250 ppm) was 0 (0-10 percent) and the average mortality rating (Elm Leaf Beetle; 500 ppm) was 5.
